This passage reports IC50 and IC90 results from ChEMBL document CHEMBL4483862, “Open-source discovery of chemical leads for next-generation chemoprotective antimalarials” (2018).

The test has as its system Plasmodium berghei. The test is described as follows: Luciferase/luciferin-expressing antifolate-resistant parasites were used to infect a culture of HepG2 cells that were pre-incubated with compounds. Infected hepatocytes emit light due to the luciferase reaction. Assay results are presented as the percent inhibition of light emission compared to control. […]. It counts as functional. The conditions noted are these: sporozoite; for IC90: read-out: LUCIFERASE INFECTION ASSAY - IC90.

The mark [1] stands for this setting: read-out: LUCIFERASE INFECTION ASSAY - IC50.

For `Cc1ccc(-c2csc(NCSc3cccc4cccnc34)n2)cc1`, the 90% effect concentration (IC90) is greater than 10 µM. Besides, the half-maximal inhibitory concentration (IC50) under setting [1] was greater than 10 µM.

In the case of `N#Cc1c(SCC(=O)c2ccc(F)c(F)c2)nc2c(c1-c1cccs1)CCCC2`, the IC90 was greater than 7.74 µM. Besides, for the setting “PBLUC_HILL_SLOPE 15.7, PBLUC_R_SQUARED 0.483, read-out: LUCIFERASE INFECTION ASSAY - IC50”, the half-maximal inhibitory concentration (IC50) amounted to 7.6 µM.

On to `COc1ccc(/C=C2\Oc3c(CN(C)C)c(O)cc(C)c3C2=O)cc1`, for which the concentration for an effect of 90% (IC90) was greater than 9.72 µM. The half-inhibitory concentration (IC50) under setting [1] is greater than 9.72 µM.

For `COc1cc2c(c(OC)c1OC)Cc1cc(OC)c(OC)c(OC)c1C2`, the concentration for an effect of 90% (IC90) is 7.66 µM. Also, the half-inhibitory concentration (IC50) (PBLUC_HILL_SLOPE 3.89, PBLUC_R_SQUARED 0.32, read-out: LUCIFERASE INFECTION ASSAY - IC50) was 4.36 µM.

For `CCNC(=O)C1CCCN(CCOc2ccc(Cl)cc2)CC1` (stereo not drawn), the IC90 was greater than 10.2 µM. Further, the IC50 under setting [1] is greater than 10.2 µM.

Turning to `O=C1CCCN1CCCNc1cc(-c2ccccc2)c2ccccc2n1`, the IC90 came to 4.46 µM. The IC50 (HEPG2TOX_HILL_SLOPE 0.987, HEPG2TOX_R_SQUARED 0.959, PBLUC_HILL_SLOPE 13.1, PBLUC_R_SQUARED 0.545, read-out: LUCIFERASE INFECTION ASSAY - IC50) is 3.77 µM.

With `CC(=O)NCc1ccc(C(=O)Nc2ccccc2O)cc1`, the IC90 came to 9.91 µM. Where the note is “PBLUC_HILL_SLOPE 1.36, PBLUC_R_SQUARED 0.725, read-out: LUCIFERASE INFECTION ASSAY - IC50”, the half-inhibitory concentration (IC50) is 1.97 µM.

As for `O=[N+]([O-])c1cnc(Sc2ccc(C(F)(F)F)cn2)s1`, the IC90 is 10.5 µM. The IC50 (FFLUC_HILL_SLOPE 78.7, FFLUC_R_SQUARED 0.547, HEPG2TOX_HILL_SLOPE 11.7, HEPG2TOX_R_SQUARED 0.958, PBLUC_HILL_SLOPE 15.1, PBLUC_R_SQUARED 0.404, read-out: LUCIFERASE INFECTION ASSAY - IC50) was found to be 9.04 µM.

Regarding `Cc1cc(NC(C)C)n2ncc(-c3ccc(F)cc3)c2n1`, the IC90 is 5.57 µM. Further, where the note is “FFLUC_HILL_SLOPE 0.941, FFLUC_R_SQUARED 0.965, HEPG2TOX_HILL_SLOPE 0.182, HEPG2TOX_R_SQUARED 0.624, PBLUC_HILL_SLOPE 0.618, PBLUC_R_SQUARED 0.897, read-out: LUCIFERASE INFECTION ASSAY - IC50”, the IC50 was determined as 0.16 µM.

For `O=C(Nc1ccc(F)c(Cl)c1)c1ccc(F)c(Cl)c1`, the 90% effect concentration (IC90) was greater than 10.9 µM. Moreover, the IC50 under setting [1] is greater than 10.9 µM.

Consider `Cc1cc2oc(=O)cc(CN3CCN(S(=O)(=O)c4ccc([N+](=O)[O-])cc4)CC3)c2cc1Cl`, for which the IC90 came to 8.57 µM. Besides, under setting [1], the IC50 was determined as 4.19 µM.

As to `CN(C)CCCNc1cc(N(C)C)c(N)c2c1C(=O)c1ccccc1C2=O`, the 90% effect concentration (IC90) was greater than 9.01 µM. The IC50 (PBLUC_HILL_SLOPE 0.553, PBLUC_R_SQUARED 0.182, read-out: LUCIFERASE INFECTION ASSAY - IC50) is greater than 9.01 µM.

Consider `CC(=O)c1ccccc1OCCOC(=O)/C(C#N)=C/c1cc(C)n(CCC(C)C)c1C`, for which the IC90 was found to be 1.72 µM. Also, where the note is “HEPG2TOX_HILL_SLOPE 0.948, HEPG2TOX_R_SQUARED 0.676, PBLUC_HILL_SLOPE 14.8, PBLUC_R_SQUARED 0.615, read-out: LUCIFERASE INFECTION ASSAY - IC50”, the IC50 was determined as 1.48 µM.

`CC(C)Oc1ccc(Nc2cc3c(cn2)nc(NCc2ccccc2)n3C)cc1`: the IC90 is greater than 10 µM. The IC50 (PBLUC_HILL_SLOPE 3.16, PBLUC_R_SQUARED 0.219, read-out: LUCIFERASE INFECTION ASSAY - IC50) is 5.76 µM.

Take `COc1ccccc1N(C)S(=O)(=O)c1ccc(Cl)c(C(=O)Nc2cccc(C)n2)c1`: the 90% effect concentration (IC90) worked out at 2.83 µM. For the setting “PBLUC_HILL_SLOPE 3.61, PBLUC_R_SQUARED 0.716, read-out: LUCIFERASE INFECTION ASSAY - IC50”, the IC50 came to 1.54 µM.

With `Brc1ccc(OCc2ccccc2)c(CNCc2ccccn2)c1`, the IC90 came out at 6.94 µM. The IC50 (PBLUC_HILL_SLOPE 4.81, PBLUC_R_SQUARED 0.436, read-out: LUCIFERASE INFECTION ASSAY - IC50) came out at 4.39 µM.

`CCCCOc1ccc(Nc2nc(C(N)Cc3ccc(OC)cc3)cs2)nn1` (stereo not drawn): the IC90 amounted to 3.76 µM. The IC50 (PBLUC_HILL_SLOPE 10.9, PBLUC_R_SQUARED 0.27, read-out: LUCIFERASE INFECTION ASSAY - IC50) was determined as 3.08 µM.

Take `CC(C)c1ccc(Nc2nccc3nc(-c4ccc(F)c(F)c4)[nH]c23)cc1`: the IC90 is greater than 10 µM. Moreover, the concentration for half-maximal inhibition (IC50) (HEPG2TOX_HILL_SLOPE 1.58, HEPG2TOX_R_SQUARED 0.81, PBLUC_HILL_SLOPE 0.658, PBLUC_R_SQUARED 0.852, read-out: LUCIFERASE INFECTION ASSAY - IC50) stood at 0.969 µM.

Consider `CCOc1ccc(NCC(=O)c2ccc(-c3ccccc3)cc2)cc1`, for which the concentration for an effect of 90% (IC90) was greater than 10 µM. Moreover, where the note is “PBLUC_HILL_SLOPE 16.8, 2.19, PBLUC_R_SQUARED 0.173, 0.582, read-out: LUCIFERASE INFECTION ASSAY - IC50”, the IC50 came out at 8.7 µM.

In the case of `COc1cc(-c2cncc(Nc3cccc(C(F)(F)F)c3)n2)cc(OC)c1OC`, the IC90 is greater than 8.14 µM. Moreover, the concentration for half-maximal inhibition (IC50) under setting [1] turned out to be 4.6 µM.

Regarding `CN(C)C(=O)c1ccc(-c2cc3c(Nc4cccc(OC(F)(F)F)c4)nccc3[nH]2)cc1`, the IC90 was greater than 10 µM. Further, under “HEPG2TOX_HILL_SLOPE 8.24, HEPG2TOX_R_SQUARED 0.393, PBLUC_HILL_SLOPE 3.02, PBLUC_R_SQUARED 0.574, read-out: LUCIFERASE INFECTION ASSAY - IC50”, the IC50 worked out at 4.92 µM.

Regarding `O=C(Nc1cccc([N+](=O)[O-])c1)c1[nH]nc2ccccc12`, the IC90 was determined as 2.96 µM. Where the note is “FFLUC_HILL_SLOPE 1.37, FFLUC_R_SQUARED 0.513, PBLUC_HILL_SLOPE 0.728, PBLUC_R_SQUARED 0.84, read-out: LUCIFERASE INFECTION ASSAY - IC50”, the IC50 came to 0.145 µM.

`COc1ccc(C(=O)NCC#Cc2cccc(C(F)(F)F)c2)cn1`: the 90% effect concentration (IC90) is greater than 10 µM. Moreover, under “FFLUC_HILL_SLOPE 300, FFLUC_R_SQUARED 0.355, read-out: LUCIFERASE INFECTION ASSAY - IC50”, the IC50 is greater than 10 µM.

Turning to `NC(Cc1ccccc1)c1csc(NC(=O)Nc2ccccc2-c2ccccc2)n1` (stereo not drawn), the IC90 is greater than 7.96 µM. Moreover, the IC50 under setting [1] was greater than 7.96 µM.

For the molecule `Cc1ccc(-c2nc(SCc3nc(=O)c4ccc(C(=O)O)cc4[nH]3)[nH]c2-c2ccc(C)cc2)cc1`, the IC90 is greater than 10 µM. In addition, the concentration for half-maximal inhibition (IC50) under setting [1] is greater than 10 µM.

As for `COc1ccc(C2=Cc3nc4ccccc4n3C3(C(F)(F)F)OC(c4ccccc4)=NN23)cc1` (stereo not drawn), the 90% effect concentration (IC90) is greater than 10 µM. Moreover, where the note is “FFLUC_HILL_SLOPE 13.2, FFLUC_R_SQUARED 0.193, HEPG2TOX_HILL_SLOPE 11.1, HEPG2TOX_R_SQUARED 0.974, PBLUC_HILL_SLOPE 14.1, PBLUC_R_SQUARED 0.236, read-out: LUCIFERASE INFECTION ASSAY - IC50”, the IC50 worked out at 9.44 µM.

On to `Fc1cccc(F)c1NC(=S)Nc1cc(C(F)(F)F)cc(C(F)(F)F)c1`, for which the IC90 is greater than 8.24 µM. In addition, the IC50 under setting [1] was greater than 8.24 µM.

Take `Cc1ccc(C)c(-c2csc(NC(=O)CCNC(=O)c3ccsc3)n2)c1`: the IC90 worked out at 5.37 µM. For the same molecule, the IC50 (PBLUC_HILL_SLOPE 433, PBLUC_R_SQUARED 0.479, read-out: LUCIFERASE INFECTION ASSAY - IC50) stood at 5.35 µM.

Take `Cc1cc(-c2cc(C(=O)N3CCCN(C)c4nc5ccccc5nc43)c3c(C)noc3n2)c(C)s1`: the 90% effect concentration (IC90) came out at 0.385 µM. For the setting “PBLUC_HILL_SLOPE 42.2, PBLUC_R_SQUARED 0.606, read-out: LUCIFERASE INFECTION ASSAY - IC50”, the IC50 came to 0.366 µM.

With `O=C(Nc1ccccc1Sc1ncc([N+](=O)[O-])s1)c1cccs1`, the concentration for an effect of 90% (IC90) is greater than 9.08 µM. Moreover, the IC50 (FFLUC_HILL_SLOPE 1.44, FFLUC_R_SQUARED 0.479, read-out: LUCIFERASE INFECTION ASSAY - IC50) is greater than 9.08 µM.

Consider `CC(C)=CC(=O)Nc1scc(-c2ccccc2)c1C(=O)OCC(=O)Nc1cc(C)on1`, for which the concentration for an effect of 90% (IC90) was greater than 10 µM. Besides, the concentration for half-maximal inhibition (IC50) under setting [1] was greater than 10 µM.

In the case of `CC(=O)c1cccc(-c2cnc3cnc(-c4ccc(CNc5ccccc5)cc4)cn23)c1`, the concentration for an effect of 90% (IC90) is greater than 7.89 µM. Besides, where the note is “FFLUC_HILL_SLOPE 9.2, FFLUC_R_SQUARED 0.0159, PBLUC_HILL_SLOPE 3.04, PBLUC_R_SQUARED 0.57, read-out: LUCIFERASE INFECTION ASSAY - IC50”, the IC50 was 4.89 µM.

With `CCc1ccccc1OCC(=O)Nc1cc(Cl)ccc1N1CCN(C)CC1`, the IC90 is greater than 10 µM. Also, for the setting “FFLUC_HILL_SLOPE 16.4, FFLUC_R_SQUARED 0.269, read-out: LUCIFERASE INFECTION ASSAY - IC50”, the IC50 was greater than 10 µM.

On to `CN(C)S(=O)(=O)c1ccc2oc3nnc(SCc4csc(-c5ccccc5)n4)n3c2c1`, for which the IC90 was greater than 10 µM. The 50% inhibitory concentration (IC50) under setting [1] was greater than 10 µM.

Consider `CCc1c(C#N)c(SCC(=O)c2cc(C)n(-c3ccccc3F)c2C)nc2c1C(=O)CC(C)(C)C2`, for which the concentration for an effect of 90% (IC90) was greater than 10 µM. For the same molecule, the half-inhibitory concentration (IC50) under setting [1] stood at 5.79 µM.

As to `O=S(=O)(c1cccs1)n1ccc(-c2ccc3c(c2)CCO3)n1`, the IC90 was greater than 9.93 µM. In addition, the IC50 under setting [1] is greater than 9.93 µM.

For `CCCCn1nc(C)c(/C=C/C(=O)N(CC)CC(=O)NCc2ccc(F)cc2)c1Cl`, the IC90 is greater than 10 µM. Besides, the IC50 (HEPG2TOX_HILL_SLOPE 2.05, HEPG2TOX_R_SQUARED 0.946, PBLUC_HILL_SLOPE 2.58, PBLUC_R_SQUARED 0.346, read-out: LUCIFERASE INFECTION ASSAY - IC50) was determined as 6.71 µM.

As for `COC(=O)c1cccc2c1CCCN2C(=O)CCN1C(=O)C2CCCCC2C1=O` (stereo not drawn), the IC90 is greater than 10 µM. In addition, the half-inhibitory concentration (IC50) under setting [1] was greater than 10 µM.

In the case of `CN(CCCc1[nH]nc(N)c1C#N)c1nc(-c2ccccn2)nc2sc(-c3ccccc3)cc12`, the 90% effect concentration (IC90) was greater than 10 µM. Also, where the note is “PBLUC_HILL_SLOPE 13.8, PBLUC_R_SQUARED 0.648, read-out: LUCIFERASE INFECTION ASSAY - IC50”, the IC50 is 8.54 µM.
